These results are taken from patent publication US5039670A, “Antithrombotic substituted cycloalkano(B)dihydroindole- and -indole-sulphonamides and use” (Bayer Aktiengesellschaft, priority 1989, dated 1991).

This experiment relates to thrombocyte aggregation. Kind of experiment: Inhibition of collagen-triggered thrombocyte aggregation in platelet-rich citrated plasma (turbidometry, aggregometer). The experiment is classed as cell-based. The following applies: Homo sapiens, 0.1 h, 37° C., response after 6 minutes, read-out: EC (limiting concentration, range of the minimum effective concentration). How it is done: To determine the action as an inhibitor of thrombocyte aggregation, blood was used from healthy subjects of both sexes. 9 parts of blood were treated with one part of 3.8% strength aqueous sodium citrate solution as an anticoagulant. From this blood, platelet-rich citrated plasma (PRP)^1 is obtained (Jurgens/Beller, Klinische Methoden der Blutgerinnungsanalyse [Clinical Methods in Blood Coagulation Analysis]; Thieme Verlag, Stuttgart, 1959).
For these assays, 0.8 ml of (PRP)^1 and 0.1 ml of the active compound solution were preincubated at 37° C. in a water bath. The thrombocyte aggregation was then determined in an aggregometer at 37° C. (Therapeutische Berichte 47, 80-86, 1975) by means of turbidometry (Born, G.V.R., J. Physiol. (London), 162, 67, 1962). For this purpose, the preincubated sample was treated with 0.1 ml of collagen, an agent which triggers aggregations. The (PRP)^1 sample underwent changes in optical density, which was recorded during a period of 6 minutes, and the response was determined after 6 minutes. From this, the inhibition compared with the control is calculated as a percentage. The limiting concentration given is the range of the minimum effective concentration.
Consider `CCOC(=O)CCn1c2c(c3cc(F)ccc31)CC(NS(=O)(=O)c1ccc(Cl)cc1)CC2` (stereo not drawn) [Example 8], for which the minimal effective concentration lay in the range of 0.3 to 1 µg/mL. As to `NC(=O)CCn1c2c(c3cc(F)ccc31)CC(NS(=O)(=O)c1ccc(Cl)cc1)CC2` (stereo not drawn) [Example 15], the minimal effective concentration was 0.01 to 0.03 µg/mL. Take `O=C(O)CCn1c2c(c3cc(F)cc(F)c31)CC(NS(=O)(=O)c1ccc(Cl)cc1)CC2` (stereo not drawn) [Example 4]: the minimal effective concentration lay within 0.01 to 0.03 µg/mL.
